Source: patent US12269793B2, “Affinity illudofulvene conjugates” (AF Chemicals, LLC, priority 2019, dated 2025)
Read-outs that look alike come from different tables or passages of the source. *1 amine or outer side, *2 acyl side, *3 side chain or, on linkers, in order; H or OH if unused. Where a SMILES comes first, the peptide text is derived from it. [ ]: non-standard residue; d: D form. The star is where a group is joined. X2 = CC1=C(CCCN*)C2=C(C)C3(CC3)[C@@](C)(O)C(=O)C2=C1; Dolaproine = CO[C@@H]([C@@H]1CCCN1)[C@@H](C)C(=O)O; X4 = CC1=C(C*)C2=C(C)C3(CC3)[C@@](C)(O)C(=O)C2=C1; Dil = CC[C@H](C)[C@H](NC)[C@@H](CC(=O)O)OC; X1 = C[C@@H](N*)[C@@H](O)c1ccccc1; NMeV = CN[C@H](C(=O)O)C(C)C; Morpholide = C1CN(*)CCO1; CO = O=C([*:1])[*:2]

How the values were obtained:
[1] = tested on: MV522 Target Cell Line (lung-derived adenocarcinoma); test: cells; conditions: MV522, 2 h, read-out: Mean IC50 value
[2] = tested on: MV522 Target Cell Line (lung-derived adenocarcinoma); test: cells; conditions: MV522, 48 h, read-out: Mean IC50 value
[3] = tested on: 8392B Nontarget Cell Line (hematopoietic); test: cells; conditions: 48 h, read-out: Mean IC50 value
[4] = tested on: NCI 60 cell line panel; test: NCI DTP 60 cell line screen assay; conditions: for Activity Value: NCI 60 cell line screen, negative = lyse tumor cells, zero = no growth, positive = slower growth; for GI50: read-out: Mean GI50 inhibition
Source text: An ADC is engulfed by a tumor cell, transported to the endosomes (pH<6.0) and then into the lysozomes (pH<4). […] 4). Cancer cells can become resistant to various toxins and drugs through the development of what is termed multi-drug resistance. This process is known to occur through several different mechanisms.

[5] = tested on: 8392B Nontarget Cell Line (hematopoietic); test: cells; conditions: 2 h, read-out: Mean IC50 value, 8392B Nontarget Cell Line, 2 hr exposure, ± SD, N = 3 unless otherwise indicated
[6] = tested on: 8392B Nontarget Cell Line (hematopoietic); conditions: read-out: Mean IC50 value, 48 hr exposure, ± SD, N = 3 unless otherwise indicated
[7] = tested on: 8392B Nontarget Cell Line (hematopoietic); conditions: read-out: Mean IC50 value, 2 hr exposure, ± SD, N = 3 unless otherwise indicated
[8] = tested on: MV522 Target Cell Line (lung-derived adenocarcinoma)
[9] = tested on: MCF7 (ER positive); assay type: cell-based; conditions: MCF7 (ER positive) versus HT29 (ER negative), result in words
Source text: MCF7 over express estrogen alpha-receptors.
MCF7 cells over express estrogen alpha-receptors.

## CC1=CC2=C(C)C3(CC3)[C@@](C)(O)C(=O)C2=C1 [Analog 001]
[1]
  IC50: 2.2 ± 0.1 µM
[2]
  IC50: 0.35 ± 0.02 µM
[3]
  IC50: 0.83 ± 0.1 µM

## CC1=C(CO)C2=C(C)C3(CC3)[C@@](C)(O)C(=O)C2=C1 [Analog 002]
[4]
  MDR Activity: Yes
[4]; ability to actually kill tumor cells versus only inhibiting growth
  Cytotoxicity: Yes

## CC(=O)OCOCC1=C(C)C=C2C(=O)[C@](C)(O)C3(CC3)C(C)=C21 [Analog 008]
[1]
  IC50: 0.87 ± 0.09 µM
[2]
  IC50: 0.63 ± 0.08 µM
[3]
  IC50: 15.1 ± 2.2 µM

## CC1=C([N+](=O)[O-])C2=C(C)C3(CC3)[C@@](C)(O)C(=O)C2=C1 [Analog 012]
[1]
  IC50: 5.15 ± 1.35 µM
[2]
  IC50: 0.32 ± 0.09 µM
[5]
  IC50: 42.2 ± 5 µM
[3]
  IC50: 18.8 ± 2.8 µM

## CC(=O)N[C@@H](CSCC1=C(C)C=C2C(=O)[C@](C)(O)C3(CC3)C(C)=C21)C(=O)N[C@@H](Cc1ccccc1)C(=O)NCC(=O)N[C@H](C=O)CC(C)C [Analog 083] (Ac-C(X4)FGL-aldehyde)
[2]
  IC50: 37.2 ± 2.9 µM
[3]
  IC50: > 42 µM

## CC(=O)N[C@@H](CSCC1=C(C)C=C2C(=O)[C@](C)(O)C3(CC3)C(C)=C21)C(=O)N[C@@H](CC(C)C)C(=O)NCC(=O)N[C@@H](C=O)Cc1ccccc1 [Analog 084] (Ac-C(X4)LG[dF]-aldehyde)
[2]
  IC50: 28.2 ± 1.4 µM
[3]
  IC50: > 42 µM

## CC(=O)O[C@@]1(C)C(=O)C2=CC(CO)=CC2=C(C)C12CC2 [Analog 090]
[1]
  IC50: 2.5 ± 0.4 µM
[2]
  IC50: 2.9 ± 0.4 µM
[5]
  IC50: 1.6 ± 0.2 µM
[3]
  IC50: 3.8 ± 0.3 µM

## CC1=C(CSc2nccn2C)C2=C(C)C3(CC3)[C@@](C)(O)C(=O)C2=C1 [Analog 096]
[2]
  IC50: 6.2 ± 0.6 µM
[5]
  IC50: > 88 µM
[3]
  IC50: > 3 µM

## CC1=C(CSC[C@@H](C)C(=O)N2CCC[C@H]2C(=O)O)C2=C(C)C3(CC3)[C@@](C)(O)C(=O)C2=C1 [Analog 098]
[1]
  IC50: 18.8 ± 2.5 µM
[2]
  IC50: 4.6 ± 0.25 µM
[5]
  IC50: > 65 µM
[3]
  IC50: 11.7 ± 1.8 µM

## C=CCCC1=C(C)C=C2C(=O)[C@](C)(O)C3(CC3)C(C)=C21 [Analog 113]
[1]
  IC50: 85 ± 0.7 µM
[2]
  IC50: 14.1 ± 3 µM
[5]
  IC50: > 93 µM
[3]
  IC50: 7.8 ± 1 µM

## CC1=C(CCC2CO2)C2=C(C)C3(CC3)[C@@](C)(O)C(=O)C2=C1 (some centres unmarked) [Analog 114]
[1]
  IC50: 1.5 ± 0.1 µM
[2]
  IC50: 0.26 ± 0.07 µM
[5]
  IC50: 25.1 ± 1 µM
[3]
  IC50: 0.7 ± 0.1 µM

## CC1=C(CCC=NN=CCCC2=C(C)C=C3C(=O)[C@@](C)(O)C4(CC4)C(C)=C32)C2=C(C)C3(CC3)[C@@](C)(O)C(=O)C2=C1 [Analog 120]
[1]
  IC50: 2.8 ± 0.9 µM
[2]
  IC50: 0.6 ± 0.1 µM
[5]
  IC50: 19.1 ± 4.6 µM
[3]
  IC50: 0.51 ± 0.11 µM

## CC1=C(CCC(C)O)C2=C(C)C3(CC3)[C@@](C)(O)C(=O)C2=C1 (some centres unmarked) [Analog 128]
[1]
  IC50: 0.84 ± 0.23 µM
[2]
  IC50: 0.37 ± 0.05 µM
[5]
  IC50: > 35 µM
[3]
  IC50: 0.8 ± 0.07 µM

## CC1=CC2=C(C)C3(CC3)[C@@](C)(O)C(O)C2=C1 (some centres unmarked) [Analog 129]
[1]
  IC50: > 136 µM
[2]
  IC50: 19.7 ± 1.9 µM
[5]
  IC50: > 136 µM
[3]
  IC50: 39.4 ± 9.2 µM

## CC(=O)ON(C(C)=O)c1ccc(C(=O)OC[C@]2(C)C=C3C(=O)[C@](C)(O)C4(CC4)C(C)=C3C2OC(=O)c2ccc(N(OC(C)=O)C(C)=O)cc2)cc1 (some centres unmarked) [Analog 140]
[6]
  IC50: > 14 µM

## COC(=O)C1=C(C(=O)OC)C23C=C(C)C1C2=C(C)C1(CC1)[C@@](C)(O)C3=O (some centres unmarked) [Analog 142]
[4]
  Activity Value: −5
  MDR Activity: Yes

## CC1=C(CSc2nc3ccccc3s2)C2=C(C)C3(CC3)[C@@](C)(O)C(=O)C2=C1 [Analog 147]
[7]
  IC50: > 76 µM

## CC1=C(CSc2nnnn2-c2ccc(O)cc2)C2=C(C)C3(CC3)[C@@](C)(O)C(=O)C2=C1 [Analog 154]
[7]
  IC50: > 70 µM

## CC1=C2C(=CC(C)(CO[Si](C)(C)C(C)(C)C)C2OC(=O)c2ccc(S(=O)(=O)F)cc2)C(=O)C(C)(O)C12CC2 (centres unmarked) [Analog 219]
[7]
  IC50: > 52 µM
[6]
  IC50: > 52 µM

## CC1=C(CCCNC(=O)[C@H](CC(C)C)NC(=O)[C@H](CCC(N)=O)NC(=O)[C@H](CC(C)C)NC(=O)[C@H](CCCCN)NC(=O)[C@H](CO)NC(=O)[C@H](CO)NC(=O)[C@H](Cc2c[nH]cn2)NC(=O)N2CCOCC2)C2=C(C)C3(CC3)[C@@](C)(O)C(=O)C2=C1 [Analog 221] ({Morpholide-CO}-HSSKLQL-X2)
[8]; read-out: Mean IC50 value, MV522 Target Cell Line, 2 hr exposure, ± SD, N = 3 unless otherwise indicated
  IC50: > 21 µM
[7]
  IC50: > 21 µM
[6]
  IC50: > 21 µM

## CC1=CC2=C(C)C3(CC3)C(C)(O)C(=NO)C2=C1 (centres unmarked) [Analog 224]
[8]; MV522 target and 8392B nontarget cell line, result in words
  toxicity as monotherapeutic agent: minimal toxicity
[7]
  IC50: > 200 µM
[6]
  IC50: > 130 µM

## CCCCCCCC/C=C/CCCCCCCC(=O)OCC1=C(C)C=C2C(=O)[C@](C)(O)C3(CC3)C(C)=C21 [Analog 226]
[7]
  IC50: > 59 µM
[6]
  IC50: > 59 µM

## CCCCCCCC/C=C/CCCCCCCC(=O)OCCCC1=C(C)C=C2C(=O)[C@](C)(O)C3(CC3)C(C)=C21 [Analog 227]
[7]
  IC50: > 57 µM

## CC1=C2C(O)C(C)(C)C3CC23C(=O)C(C)(O)C12CC2 (centres unmarked) [Analog 252]
[7]
  IC50: > 380 µM
[6]
  IC50: > 380 µM

## CC(=O)OC[C@]1(C)C=C2C(=O)[C@](C)(O)C3(CC3)C(C)=C2[C@H]1OC(=O)N(C)CCN(C)C(=O)OC(C)(C)C [Analog 334]
[4]
  Activity Value: −11
  MDR Activity: Yes

## CC(=O)O[C@@H]1C2=C(C)C3(CC3)[C@@](C)(O)C(=O)C2=C[C@@]1(C)CO [Analog 371]
[4]
  Activity Value: −18
  MDR Activity: Yes

## CC1=C2C(=C[C@@](C)(C=O)[C@@H]2O)C(=O)[C@](C)(O)C12CC2 [Analog 383]
[4]
  Activity Value: −1
  MDR Activity: Yes

## CC1=C(CNO)C2=C(C)C3(CC3)[C@@](C)(O)C(=O)C2=C1 [Analog 394]
[4]
  Activity Value: −2
  MDR Activity: Yes

## COc1cc2cc(c1Cl)N(C)C(=O)C[C@H](OC(=O)[C@H](C)N(C)C(=O)CCS)[C@]1(C)O[C@H]1[C@H](C)[C@@H]1C[C@@](O)(NC(=O)O1)[C@H](OC)/C=C/C=C(\C)C2 [DM1]
[4]
  Activity Value: +8

## CC[C@H](C)[C@@H]([C@@H](CC(=O)N1CCC[C@H]1[C@H](OC)[C@@H](C)C(=O)N[C@@H](Cc1ccccc1)c1nccs1)OC)N(C)C(=O)[C@@H](NC(=O)[C@H](C(C)C)N(C)C)C(C)C [Dolstatin-10]
[4]; NCI DTP 60 cell line, mean
  Mean LD50 cytotoxic: >50,000 nM
  Mean TGI cytostatic: 2,680 nM
  GI50: 0.017 µM

## C/C(=C\c1csc(C)n1)[C@@H]1C[C@@H]2O[C@@H]2CCC[C@H](C)[C@H](O)[C@@H](C)C(=O)C(C)(C)[C@@H](O)CC(=O)O1 [Epothilone A]
[4]
  Activity Value: +31

## CO[C@@H]1[C@H](O)CC[C@]2(CO2)[C@H]1[C@@]1(C)O[C@@H]1CC=C(C)C [Fumagillol]
[4]; NCI DTP 60 cell line, mean
  Mean LD50 cytotoxic: >50,000 nM

## CC1=C2C(=CC(C)(C)[C@@H]2O)C(=O)[C@](C)(O)C12CC2 [Illudin M, reference compound]
[9]
  preferential killing of ER positive cells: killed both ER negative and ER positive cells to the same extent

## CC[C@H](C)[C@@H]([C@@H](CC(=O)N1CCC[C@H]1[C@H](OC)[C@@H](C)C(=O)N[C@H](C)[C@@H](O)c1ccccc1)OC)N(C)C(=O)[C@@H](NC(=O)[C@@H](NC)C(C)C)C(C)C [MMAE, monomethyl auristatin E] (H-[NMeV]V[Dil][Dolaproine]-X1)
[4]
  Activity Value: +21
  MDR Activity: No
[4]; listed as MMA
  MDR Activity: not MDR active

## COc1cc2cc(c1Cl)N(C)C(=O)C[C@H](OC(=O)[C@H](C)N(C)C(C)=O)[C@]1(C)O[C@H]1[C@H](C)[C@@H]1C[C@@](O)(NC(=O)O1)[C@H](OC)/C=C/C=C(\C)C2 [Maytansine]
[4]; 60 cell
  GI50: 0.019 µM
[4]; NCI DTP 60 cell line, mean
  Mean LD50 cytotoxic: 49,200 nM

## C=C1C[C@H]2C=Nc3cc(OCCCOc4cc5c(cc4OC)C(=O)N4CC(=C)C[C@H]4C=N5)c(OC)cc3C(=O)N2C1 [Pyrrolo-benzodiazepines]
[4]; NCI DTP 60 cell line, mean
  Mean LD50 cytotoxic: >23,000 nM
